# Reference: ChEMBL document CHEMBL5579825, “Exploration of 1-(indolin-1-yl)-2-(thiazol-2-yl)ethan-1-one derivatives as novel anti-HBV agent with potential TLR7-agonistic effect” (Eur J Med Chem, 2024)
# Calls of active or inactive are those of the source. The calls are words filed in the database; no cut-off is given here.
# Columns and labels:
# Hepatitis B virus [1] = experiment: Antiviral activity against HBV infected in human HepG2.2.15 cells assessed as inhibition of viral DNA replication at 4 uM pre-transfected cells with viral genome followed by compound treatment for 6 days with replacement of medium containing compound on every 2 days by RT-PCR analysis relative to control; assay type: functional; settings: for inhibition: time 6.0 day; for inhibition at 4 µM: HepG2.2.15, 144 h, time 6 day
# Hepatitis B virus [2] = experiment: Antiviral activity against HBV infected in LAM/ETV-resistant human HepG2.A64 cells assessed as inhibition of viral DNA replication at 10 uM pre-transfected cells with viral genome followed by compound treatment for 72 hrs by RT-PCR analysis relative to control; assay type: functional
# Hepatitis B virus [3] = experiment: Antiviral activity against HBV infected in human HepG2.2.15 cells assessed as inhibition of viral DNA replication at 10 uM pre-transfected cells with viral genome followed by compound treatment for 72 hrs by RT-PCR analysis relative to control; assay type: functional
# [4] = Selectivity index, ratio of CC50 for human HepG2.2.15 cells to IC50 for HBV infected in human HepG2.2.15 cells assessed as inhibition of viral DNA replication; assay type: toxicity, cell-based; settings: HepG2.2.15 cells, read-out: Ratio CC50/IC50
# [5] = Selectivity index, ratio of CC50 for human HepG2.2.15 cells to IC50 for HBsAg secretion in human HepG2.2.15 cells; assay type: toxicity, cell-based; settings: for selectivity ratio: HepG2.2.15 cells, read-out: Ratio CC50/IC50
# Hepatitis B virus [6] = experiment: Antiviral activity against HBV infected in human HepG2.2.15 cells assessed as inhibition of viral DNA replication pre-transfected cells with viral genome followed by compound treatment for 6 days with replacement of medium containing compound on every 2 days by RT-PCR analysis; assay type: functional, organism-based
# [7] = Cytotoxicity against human HepG2.2.15 cells incubated for 72 hrs by CCK8 assay; assay type: toxicity, cell-based, HepG2 2.2.15
# [8] = Inhibition of HBsAg secretion in human HepG2.2.15 cells treated for 6 days with replacement of medium containing compound on every 2 days by […]; assay type: functional, cell-based; settings: HepG2 2.2.15
# Hepatitis B virus [9] = experiment: Antiviral activity against HBV infected in human HepG2.A64 cells assessed as inhibition of viral DNA replication pre-transfected cells with viral genome followed by compound treatment for 3 days by RT-PCR analysis; assay type: functional, organism-based; settings: HepG2.A64, 72 h
# Hepatitis B virus [10] = experiment: Antiviral activity against HBV infected in human HepG2.2.15 cells assessed as inhibition of viral DNA replication at 4 uM pre-transfected cells with viral genome followed by compound treatment for 72 hrs by RT-PCR analysis relative to control; assay type: functional
# [11] = Selectivity index, ratio of CC50 for human HepG2.A64 cells to IC50 for HBV infected in human HepG2.A64 cells assessed as inhibition of viral DNA replication; assay type: toxicity, cell-based; settings: read-out: Ratio CC50/IC50
# Hepatitis B virus [12] = experiment: Antiviral activity against HBV infected in LAM/ETV-resistant human HepG2.A64 cells assessed as inhibition of viral DNA replication at 4 uM pre-transfected cells with viral genome followed by compound treatment for 72 hrs by RT-PCR analysis relative to control; assay type: functional
# [13] = Cytotoxicity against human HepG2.A64 cells incubated for 72 hrs by CCK8 assay; assay type: toxicity, cell-based
# Hepatitis B virus [14] = experiment: Antiviral activity against HBV infected in human HepG2.2.15 cells assessed as inhibition of viral DNA replication at 100 uM pre-transfected cells with viral genome followed by compound treatment for 72 hrs by RT-PCR analysis relative to control; assay type: functional
# Hepatitis B virus [15] = experiment: Antiviral activity against HBV infected in LAM/ETV-resistant human HepG2.A64 cells assessed as inhibition of viral DNA replication at 100 uM pre-transfected cells with viral genome followed by compound treatment for 72 hrs by RT-PCR analysis relative to control; assay type: functional
Compound,inhibition at 4 µM (Hepatitis B virus [1]) [%],selectivity ratio [4],IC50 (Hepatitis B virus [6]) [µM],CC50 at 72 h [7] [µM],IC50 [8] [µM],further results
Cc1ccc2c(c1)N(C(=O)Cc1csc(COc3ccccc3)n1)CC2,,,,,,inhibition (Hepatitis B virus [1]): inactive
O=C(Cc1csc(COc2ccc(F)cc2)n1)N1CCc2ccccc21,19.1,,,,,
COc1ccc(OCc2nc(CC(=O)N3CCc4ccccc43)cs2)cc1,34.5,,,,,
Cc1cccc2c1N(C(=O)Cc1csc(COc3ccccc3)n1)CC2,13.9,,,,,
C=C1[C@H](CO)[C@@H](O)C[C@@H]1n1cnc2c(=O)[nH]c(N)nc21 [ENTECAVIR ANHYDROUS],,,,,,inhibition at 10 µM (Hepatitis B virus [2]): 20.1%; inhibition at 10 µM (Hepatitis B virus [3]): 98.1%
COc1cccc2c1CCN2C(=O)Cc1csc(COc2ccccc2)n1,4.26,,,,,
O=C(Cc1csc(COc2ccccc2)n1)N1CCc2cccc(Cl)c21,65.9,> 49.5,1.01,> 50,> 50,Ratio CC50/IC50 [5]: Not Active
O=C(Cc1csc(COc2ccccc2)n1)N1CCc2cccc(Br)c21,51.6,> 16.3,3.07,> 50,> 50,Ratio CC50/IC50 [5]: Not Active
O=C(Cc1csc(COc2ccccc2)n1)N1CCc2cc(Cl)ccc21,80,> 217,0.23,> 50,26.1,selectivity ratio [5]: > 1.92; IC50 (Hepatitis B virus [9]): 0.57 µM; inhibition at 4 µM (Hepatitis B virus [10]): 74.5%; selectivity ratio [11]: > 35.1; inhibition at 4 µM (Hepatitis B virus [12]): 73.7%; CC50 at 72 h [13]: > 20 µM
O=C(Cc1csc(COc2ccccc2)n1)N1CCc2c(F)cccc21,52.2,> 12.8,3.9,> 50,30.5,selectivity ratio [5]: > 1.64
O=C(Cc1csc(COc2ccccc2)n1)N1CCc2c(Br)cccc21,,,,,,inhibition (Hepatitis B virus [1]): inactive
COc1ccc2c(c1)CCN2C(=O)Cc1csc(COc2ccccc2)n1,57.7,> 17.6,2.84,> 50,39.1,selectivity ratio [5]: > 1.28
COc1ccc2c(c1)N(C(=O)Cc1csc(COc3ccccc3)n1)CC2,18.6,,,,,
COc1cccc(OCc2nc(CC(=O)N3CCc4ccccc43)cs2)c1,8.33,,,,,
O=C(Cc1csc(COc2ccccc2Cl)n1)N1CCc2ccccc21,15.7,,,,,
O=C(Cc1csc(COc2cccc(Br)c2)n1)N1CCc2ccccc21,73.4,> 59.5,0.84,> 50,42.7,selectivity ratio [5]: > 1.17
O=C(Cc1csc(COc2ccccc2)n1)N1CCc2ccc(F)cc21,34.2,,,,,
Cc1ccc2c(c1)CCN2C(=O)Cc1csc(COc2ccccc2)n1,40.5,,,,,
O=C(Cc1csc(COc2ccccc2Br)n1)N1CCc2ccccc21,,,,,,inhibition (Hepatitis B virus [1]): inactive
O=C(Cc1csc(COc2ccccc2)n1)N1CCc2ccccc21,45.4,> 2.91,17.2,> 50,> 50,Ratio CC50/IC50 [5]: Not Active

Compound,inhibition at 4 µM (Hepatitis B virus [1]) [%],selectivity ratio [4],IC50 (Hepatitis B virus [6]) [µM],CC50 at 72 h [7] [µM],IC50 [8] [µM],further results
O=C(Cc1csc(COc2ccccc2)n1)N1CCc2ccc(Cl)cc21,59.6,> 80.7,0.62,> 50,42.2,selectivity ratio [5]: > 1.19
O=C(Cc1csc(COc2cccc(Cl)c2)n1)N1CCc2ccccc21,,,,,,inhibition (Hepatitis B virus [1]): inactive
O=C(Cc1csc(COc2ccccc2C(F)(F)F)n1)N1CCc2ccccc21,74.5,> 75.8,0.66,> 50,> 50,Ratio CC50/IC50 [5]: Not Active
O=C(Cc1csc(COc2ccccc2)n1)N1CCc2cc(F)ccc21,18.7,,,,,
COc1cccc2c1N(C(=O)Cc1csc(COc3ccccc3)n1)CC2,41.3,,,,,
O=C(Cc1csc(COc2cccc(C(F)(F)F)c2)n1)N1CCc2ccccc21,50.9,> 14.2,3.51,> 50,41.6,selectivity ratio [5]: > 1.2
Cc1ccccc1OCc1nc(CC(=O)N2CCc3ccccc32)cs1,22.6,,,,,
O=C(Cc1csc(COc2ccccc2)n1)N1CCc2c(Cl)cccc21,33.9,,,,,
O=C(Cc1csc(COc2ccc(C(F)(F)F)cc2)n1)N1CCc2ccccc21,70.2,> 76.9,0.65,> 50,39.5,selectivity ratio [5]: > 1.27
O=C(Cc1csc(COc2cccc(F)c2)n1)N1CCc2ccccc21,,,,,,inhibition (Hepatitis B virus [1]): inactive
O=C(Cc1csc(COc2ccccc2F)n1)N1CCc2cc(Br)ccc21,72.6,> 116,0.43,> 50,44.7,selectivity ratio [5]: > 0.89
O=C(Cc1csc(COc2ccc(Br)cc2)n1)N1CCc2ccccc21,25.7,,,,,
O=C(Cc1csc(COc2ccccc2)n1)N1CCc2ccc(Br)cc21,14.1,,,,,
Cc1cccc(OCc2nc(CC(=O)N3CCc4ccccc43)cs2)c1,65.4,> 67.6,0.74,> 50,20.4,selectivity ratio [5]: > 2.45
Cc1ccc(OCc2nc(CC(=O)N3CCc4ccccc43)cs2)cc1,39.4,,,,,
COc1ccccc1OCc1nc(CC(=O)N2CCc3ccccc32)cs1,45.5,,,,,
Nc1ccn([C@@H]2CS[C@H](CO)O2)c(=O)n1 [LAMIVUDINE],90.8,> 1000,< 0.1,> 100,> 100,Ratio CC50/IC50 [5]: Not Active; IC50 (Hepatitis B virus [9]): > 100 µM; inhibition at 100 µM (Hepatitis B virus [14]): 92.3%; inhibition at 100 µM (Hepatitis B virus [15]): 17.8%; CC50 at 72 h [13]: > 100 µM
O=C(Cc1csc(COc2ccccc2)n1)N1CCc2cc(Br)ccc21,94,> 132,0.38,> 50,> 50,Ratio CC50/IC50 [5]: Not Active
O=C(Cc1csc(COc2ccccc2)n1)N1CCc2cccc(F)c21,34.6,,,,,
